Experimental data as given in publication PMC10385824, “Antiproliferative and Tubulin-Destabilising Effects of 3-(Prop-1-en-2-yl)azetidin-2-Ones and Related Compounds in MCF-7 and MDA-MB-231 Breast Cancer Cells” (Pharmaceuticals, 2023).

Test system: microtubule network in MCF-7 cells
Experiment: Immunofluorescence confocal microscopy
Format: cell-based, human
Details: 16 h
Method: CA-4 and β-lactam 9q depolymerise the microtubule network in MCF-7 cells. […] After 16 h, the cells were fixed in 4% paraformaldehyde and stained with mouse monoclonal anti-α-tubulin−FITC antibody (clone DM1A) (green), Alexa Fluor 488 dye, and counterstained with DAPI (blue). The confocal images were obtained by Leica SP8 confocal microscopy with Leica application suite X software. Representative confocal micrograph images of three separate experiments are shown above [scale bar: […]].
The effects of β-lactam 9q on MCF-7 cytoskeleton were determined using confocal microscopy as previously described. MCF-7 cells were seeded at 1 × 10^5 cells/mL in glass slides with eight chambers (BD Biosciences, San Jose, CA, USA). […] Following treatment, cells were gently washed in PBS, fixed for 20 min with 4% paraformaldehyde in PBS and permeabilised in 0.5% Triton X-100. The cells were then washed with PBS-T (PBS containing 0.1% Tween), blocked in 5% bovine serum albumin diluted in PBS-T and incubated with mouse monoclonal anti-α-tubulin-FITC antibody (clone DM1A) (Sigma, Milwaulkee, WI, USA) (1:100) for 2 h at 20 °C. The cells were washed again with PBS-T and incubated with Alexa Fluor 488 dye (1:450) for 1 h at 20 °C. Following washes in PBST, the cells were mounted in Ultra Cruz Mounting Media (Santa Cruz Biotechnology, Santa Cruz, CA, USA), which contained 4,6-diamino-2-phenolindol dihydrochloride (DAPI). The immunofluorescence cell images were captured by Leica SP8 confocal microscopy and analysed with Leica application suite X software. Microscopy experiments were performed on three independent occasions, and the images for these experiments were obtained on the same day using identical conditions.

C=C(C)C1C(=O)N(c2cc(OC)c(OC)c(OC)c2)C1c1ccc(OC)c(O)c1 (stereo not shown) [9q, 4-(3-Hydroxy-4-methoxyphenyl)-1-(3,4,5-trimethoxyphenyl)-3-(prop-1-en-2-yl)azetidin-2-one]
effect on microtubule network: microtubule formation was inhibited and resulted in depolymerised microtubules
